Experimental data from ChEMBL document CHEMBL1201862, “PubChem BioAssay data set” (2004).
Active and inactive are the calls of the source.

Key:
[1] = Fluorescence-based cell-based high throughput dose response assay for inhibitors of the interaction of nucleotide-binding oligomerization domain containing 2 (NOD2) and the receptor-interacting serine-threonine kinase 2 (RIPK2).; type: functional, Homo sapiens
[2] = molecular target: G-protein coupled receptor 55 (Homo sapiens, UniProt Q9Y2T6); assay: selective activators of receptor GPR55 – imaging, U2OS cells, beta-arrestin-GFP redistribution, primary screen (AID 1961); type: functional
G-protein coupled receptor 55, sequence (Q9Y2T6 whole entry): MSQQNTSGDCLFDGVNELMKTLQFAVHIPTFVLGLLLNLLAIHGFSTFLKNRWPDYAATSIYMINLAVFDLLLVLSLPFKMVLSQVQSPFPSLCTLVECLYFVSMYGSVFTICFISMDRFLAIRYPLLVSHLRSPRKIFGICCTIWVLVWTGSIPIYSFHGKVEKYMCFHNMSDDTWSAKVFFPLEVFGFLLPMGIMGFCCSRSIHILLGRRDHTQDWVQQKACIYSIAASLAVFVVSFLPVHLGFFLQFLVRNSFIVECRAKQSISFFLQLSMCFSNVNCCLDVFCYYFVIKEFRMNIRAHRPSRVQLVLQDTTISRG

[3] = molecular target: Potassium voltage-gated channel subfamily KQT member 2 (Rattus norvegicus, UniProt O88943); assay: blockers of KCNQ2 channel current – cell-based, automated electrophysiology, set II, rat KCNQ2, dose response (AID 588637); type: functional
Potassium voltage-gated channel subfamily KQT member 2, sequence (O88943 whole entry): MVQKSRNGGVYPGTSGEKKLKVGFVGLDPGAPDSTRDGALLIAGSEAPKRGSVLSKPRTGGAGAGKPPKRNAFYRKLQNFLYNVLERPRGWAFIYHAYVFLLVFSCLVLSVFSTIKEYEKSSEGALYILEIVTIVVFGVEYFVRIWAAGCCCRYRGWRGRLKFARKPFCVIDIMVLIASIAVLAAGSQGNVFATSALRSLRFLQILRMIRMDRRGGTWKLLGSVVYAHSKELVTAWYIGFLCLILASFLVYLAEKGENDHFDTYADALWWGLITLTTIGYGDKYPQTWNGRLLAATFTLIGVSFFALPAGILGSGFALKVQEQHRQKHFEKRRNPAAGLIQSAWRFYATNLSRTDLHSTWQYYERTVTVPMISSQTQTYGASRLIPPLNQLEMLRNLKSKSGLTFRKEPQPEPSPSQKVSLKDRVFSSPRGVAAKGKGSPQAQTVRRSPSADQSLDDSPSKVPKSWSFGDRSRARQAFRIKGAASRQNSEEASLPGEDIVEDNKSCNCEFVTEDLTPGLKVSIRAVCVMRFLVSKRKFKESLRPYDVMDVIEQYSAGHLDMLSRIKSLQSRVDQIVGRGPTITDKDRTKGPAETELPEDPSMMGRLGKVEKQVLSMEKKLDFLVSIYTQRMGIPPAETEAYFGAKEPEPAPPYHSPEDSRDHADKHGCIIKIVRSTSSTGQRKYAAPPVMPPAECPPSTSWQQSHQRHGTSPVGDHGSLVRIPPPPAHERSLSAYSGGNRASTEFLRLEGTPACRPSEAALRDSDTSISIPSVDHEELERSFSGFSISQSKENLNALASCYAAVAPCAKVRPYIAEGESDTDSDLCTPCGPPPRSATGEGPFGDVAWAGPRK

[4] = molecular target: T1, Sentrin-specific protease 8 (Homo sapiens, UniProt Q96LD8); type: functional;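 further: luminescence read-out of SENP8 inhibition, dose-response confirmation following an ultra-high-throughput screen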
T1 sequence (Q96LD8 whole entry): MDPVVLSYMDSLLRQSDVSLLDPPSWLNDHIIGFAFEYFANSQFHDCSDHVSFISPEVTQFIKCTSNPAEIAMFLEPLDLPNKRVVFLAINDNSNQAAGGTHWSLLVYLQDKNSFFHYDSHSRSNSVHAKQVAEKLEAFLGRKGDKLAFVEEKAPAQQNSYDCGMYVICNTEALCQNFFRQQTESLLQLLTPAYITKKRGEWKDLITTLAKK

Caspase-3 = molecular target: T2, Caspase-3 (Homo sapiens, UniProt P42574); type: functional;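 further: Dose-response selectivity test against caspase-3 for candidate inhibitors of sentrin-specific proteases (SENPs)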
T2 sequence (P42574 whole entry): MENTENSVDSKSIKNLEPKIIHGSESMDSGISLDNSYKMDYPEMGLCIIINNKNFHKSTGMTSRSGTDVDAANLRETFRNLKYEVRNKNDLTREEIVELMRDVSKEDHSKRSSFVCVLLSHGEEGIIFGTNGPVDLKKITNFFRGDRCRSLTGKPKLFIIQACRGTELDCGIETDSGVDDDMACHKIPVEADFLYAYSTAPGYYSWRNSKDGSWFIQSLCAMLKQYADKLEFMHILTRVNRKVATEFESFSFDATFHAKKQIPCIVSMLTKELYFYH

[5] = molecular target: T3, Sentrin-specific protease 7 (Homo sapiens, UniProt Q9BQF6); type: functional;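 further: Luminescence-based dose-response confirmation of ultra-high-throughput screening hits, measuring inhibition of SENP7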
T3 sequence (Q9BQF6 whole entry): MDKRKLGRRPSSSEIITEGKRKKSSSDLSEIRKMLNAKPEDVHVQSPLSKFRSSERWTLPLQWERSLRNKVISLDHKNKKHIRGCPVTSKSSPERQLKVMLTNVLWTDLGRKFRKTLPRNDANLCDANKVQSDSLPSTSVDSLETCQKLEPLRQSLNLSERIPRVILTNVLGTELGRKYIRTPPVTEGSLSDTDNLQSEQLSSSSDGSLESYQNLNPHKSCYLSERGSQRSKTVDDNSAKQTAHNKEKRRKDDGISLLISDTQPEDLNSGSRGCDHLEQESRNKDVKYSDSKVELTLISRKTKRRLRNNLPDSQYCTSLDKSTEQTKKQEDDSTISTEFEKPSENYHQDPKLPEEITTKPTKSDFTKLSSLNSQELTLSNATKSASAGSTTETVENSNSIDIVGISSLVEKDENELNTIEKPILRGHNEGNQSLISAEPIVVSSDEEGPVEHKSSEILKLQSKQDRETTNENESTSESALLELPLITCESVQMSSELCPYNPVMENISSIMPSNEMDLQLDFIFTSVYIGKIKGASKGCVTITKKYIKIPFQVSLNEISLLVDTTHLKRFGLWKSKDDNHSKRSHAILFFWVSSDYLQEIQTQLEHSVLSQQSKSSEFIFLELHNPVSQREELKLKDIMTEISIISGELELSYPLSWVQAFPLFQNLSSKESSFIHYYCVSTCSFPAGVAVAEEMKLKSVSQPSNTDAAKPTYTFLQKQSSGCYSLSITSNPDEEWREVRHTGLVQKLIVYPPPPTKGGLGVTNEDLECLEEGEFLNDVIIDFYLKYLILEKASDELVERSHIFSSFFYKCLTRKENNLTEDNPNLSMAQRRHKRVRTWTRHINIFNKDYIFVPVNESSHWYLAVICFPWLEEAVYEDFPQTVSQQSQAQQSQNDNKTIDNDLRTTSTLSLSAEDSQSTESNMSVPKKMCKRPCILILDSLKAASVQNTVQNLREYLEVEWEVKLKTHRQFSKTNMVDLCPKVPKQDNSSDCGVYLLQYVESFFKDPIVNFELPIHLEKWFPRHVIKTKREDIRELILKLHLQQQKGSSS

[6] = molecular target: T4, Sentrin-specific protease 6 (Homo sapiens, UniProt Q9GZR1); type: functional;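 further: Luminescence-based dose-response confirmatory assay of SENP6 inhibition, following up an ultra-high-throughput screen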
T4 sequence (Q9GZR1 whole entry): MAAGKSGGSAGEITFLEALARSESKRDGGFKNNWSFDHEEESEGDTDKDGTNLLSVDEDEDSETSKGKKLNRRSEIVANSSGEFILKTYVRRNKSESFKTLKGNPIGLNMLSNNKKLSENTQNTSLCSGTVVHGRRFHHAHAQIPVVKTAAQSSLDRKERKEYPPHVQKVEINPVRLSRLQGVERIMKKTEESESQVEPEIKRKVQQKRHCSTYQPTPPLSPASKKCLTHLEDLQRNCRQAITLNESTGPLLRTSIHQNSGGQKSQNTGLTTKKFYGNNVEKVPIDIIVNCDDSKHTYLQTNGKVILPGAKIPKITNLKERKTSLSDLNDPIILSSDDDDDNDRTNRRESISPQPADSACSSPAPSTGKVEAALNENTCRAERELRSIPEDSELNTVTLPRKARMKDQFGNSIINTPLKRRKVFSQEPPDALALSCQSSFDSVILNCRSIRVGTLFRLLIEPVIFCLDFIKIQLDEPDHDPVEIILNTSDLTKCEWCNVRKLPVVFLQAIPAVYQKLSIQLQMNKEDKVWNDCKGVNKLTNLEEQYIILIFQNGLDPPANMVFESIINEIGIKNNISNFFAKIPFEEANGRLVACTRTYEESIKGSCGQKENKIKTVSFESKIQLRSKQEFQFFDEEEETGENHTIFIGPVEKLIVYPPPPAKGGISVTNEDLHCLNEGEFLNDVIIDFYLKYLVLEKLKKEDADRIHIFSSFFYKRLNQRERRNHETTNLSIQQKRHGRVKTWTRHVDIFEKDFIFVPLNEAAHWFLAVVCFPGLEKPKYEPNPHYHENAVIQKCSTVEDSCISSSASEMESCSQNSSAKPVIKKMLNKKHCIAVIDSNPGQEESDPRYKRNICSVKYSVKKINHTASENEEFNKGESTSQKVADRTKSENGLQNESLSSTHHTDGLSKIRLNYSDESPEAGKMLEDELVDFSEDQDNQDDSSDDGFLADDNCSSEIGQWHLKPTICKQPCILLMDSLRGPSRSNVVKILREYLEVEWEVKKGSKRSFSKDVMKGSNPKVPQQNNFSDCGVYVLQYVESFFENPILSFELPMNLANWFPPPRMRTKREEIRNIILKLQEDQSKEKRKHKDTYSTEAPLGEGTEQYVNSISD

[7] = inhibition of ARNT PAS-B/TACC3 complex formation – biochemical, AlphaScreen, cherry-picked samples, confirmation (AID 651703); type: functional, Homo sapiens;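 further: His-tagged ARNT PAS-B domain paired with GST-TACC3 E629A dimer coactivator fragment; potency of inhibitors that break up the complex and lower AlphaScreen signal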
[8] = molecular target: T5, Probable nicotinate-nucleotide adenylyltransferase (Staphylococcus aureus (strain N315), UniProt P65502); type: functional, Staphylococcus aureus subsp. aureus N315;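 on IC50 Mean: confirmatory dose-response retesting of NadD inhibitor hits first found in an ultra-high-throughput screen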
T5 sequence (P65502 whole entry): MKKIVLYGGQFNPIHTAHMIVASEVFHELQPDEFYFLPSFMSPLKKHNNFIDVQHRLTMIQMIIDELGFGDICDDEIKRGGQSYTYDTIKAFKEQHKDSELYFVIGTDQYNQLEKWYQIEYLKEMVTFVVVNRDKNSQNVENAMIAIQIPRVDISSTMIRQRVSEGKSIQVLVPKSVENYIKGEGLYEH

[9] = molecular target: T5, Probable nicotinate-nucleotide adenylyltransferase; type: functional, Staphylococcus aureus subsp. aureus N315; details: read-out: IC50_Mean
Beta-galactosidase = Beta-galactosidase (Escherichia coli, UniProt Q8VNN2); assay: Dose response counterscreen for EBI2 assay utilizing the enzyme, b-galactosidase.; type: functional
Beta-galactosidase, sequence (Q8VNN2 whole entry): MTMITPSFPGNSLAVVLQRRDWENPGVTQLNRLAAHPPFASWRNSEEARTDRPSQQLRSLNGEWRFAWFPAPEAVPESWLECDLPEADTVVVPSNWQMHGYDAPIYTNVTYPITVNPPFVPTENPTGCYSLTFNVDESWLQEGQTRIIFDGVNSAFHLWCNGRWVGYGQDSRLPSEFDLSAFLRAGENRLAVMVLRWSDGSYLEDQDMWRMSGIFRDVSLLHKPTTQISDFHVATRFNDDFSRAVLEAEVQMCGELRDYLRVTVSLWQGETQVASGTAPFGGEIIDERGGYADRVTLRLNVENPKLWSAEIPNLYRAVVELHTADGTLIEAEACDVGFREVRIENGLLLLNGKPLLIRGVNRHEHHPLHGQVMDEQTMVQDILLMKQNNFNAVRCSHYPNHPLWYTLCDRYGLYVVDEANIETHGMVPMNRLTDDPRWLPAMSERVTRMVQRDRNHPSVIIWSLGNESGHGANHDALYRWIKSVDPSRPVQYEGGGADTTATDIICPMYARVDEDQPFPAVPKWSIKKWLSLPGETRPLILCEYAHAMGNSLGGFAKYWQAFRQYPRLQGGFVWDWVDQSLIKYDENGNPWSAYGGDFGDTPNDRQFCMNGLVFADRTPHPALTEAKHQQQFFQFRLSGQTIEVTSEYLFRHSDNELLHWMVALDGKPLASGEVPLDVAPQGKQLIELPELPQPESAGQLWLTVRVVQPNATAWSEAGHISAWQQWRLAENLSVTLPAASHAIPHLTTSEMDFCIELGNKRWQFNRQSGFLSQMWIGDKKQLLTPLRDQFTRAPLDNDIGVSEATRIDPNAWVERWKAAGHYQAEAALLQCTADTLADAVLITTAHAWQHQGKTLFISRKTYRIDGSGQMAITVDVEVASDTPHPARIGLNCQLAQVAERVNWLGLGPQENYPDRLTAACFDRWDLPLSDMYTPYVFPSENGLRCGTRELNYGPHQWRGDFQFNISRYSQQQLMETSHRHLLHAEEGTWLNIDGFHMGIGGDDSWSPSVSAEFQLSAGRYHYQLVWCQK

CC(=O)O[C@H]1C[C@@H]2OC3C=C(C)CCC3(C)[C@@]1(C)[C@@]21CO1 (some centres not stated)
IC50 [1]: 49.8 µM (inactive)

CCOC(=O)N1CCC(N(CCOC)C(=O)Nc2ccc(Cl)c(Cl)c2)CC1
EC50 [2]: 2.65 µM (active) | IC50 [3]: 0.99 µM (active)

CC1Oc2ccccc2N(CC(=O)N(Cc2ccccc2)Cc2ccccn2)C1=O (configuration not stated)
IC50 [3]: 1 µM (active)

O=C1/C(=C/c2cccs2)Sc2ccccc21
IC50 [4]: 2.41 µM (active) | IC50 (Caspase-3): 3.44 µM (active) | IC50 [5]: 2.11 µM (active) | IC50 [6]: 2.36 µM (active)

O=C(CSc1cccc2cccnc12)N/N=C/c1ccncc1
AC50 [7]: 110 µM (active)

Cc1ccc(Cn2c(C3CCCN3c3nc(-c4cc(Cl)c(N)c(Cl)c4)cs3)nc3cc(Cl)c(Cl)cc32)cc1 (configuration not stated)
IC50 [8]: 11.1 µM (active) | IC50 [9]: 26.4 µM (active)

O=C(CCN1C(=O)c2cccnc2C1=O)NC1CCCCCC1
AC50 [7]: 76.9 µM (active)

COc1cccc(Nc2nc(-c3ccc4c(c3)OCCO4)cs2)c1
IC50 [4]: 30.3 µM (active) | IC50 (Caspase-3): 40.2 µM (active) | IC50 [5]: 7.97 µM (active) | IC50 [6]: 20.3 µM (active)

CCOC(=O)N1CCN(C(=O)c2cc3c(s2)-c2ccccc2OC3)CC1
IC50 (Beta-galactosidase): > 80 µM (inactive)
